The text below walks through data of patent EP4818155A1, “AZOBENZENE-[…], PROTEIN-COUPLED DRUG […], AND PHARMACEUTICAL USE THEREOF” (priority 2023, dated 2025).

Square brackets hold non-standard residues; d marks the D form. Peptide text beside a SMILES is read from it. * marks the point of attachment. Dolaproine = CO[C@@H]([C@@H]1CCCN1)[C@@H](C)C(=O)O; Dil = CC[C@H](C)[C@H](NC)[C@@H](CC(=O)O)OC; X1 = C[C@@H](N*)[C@@H](O)c1ccccc1; NMeV = CN[C@H](C(=O)O)C(C)C

One series has as its system MCF-7. Briefly: In vitro cytotoxicity (CellTiter Glo). The format is cell-based. Particulars: Homo sapiens, MCF7; hypoxic conditions (0.1% O2), HER2-; read-out: EC50 (cell proliferation inhibitory activity). As to the method: (§1) The test procedure was shown as follows: • 1. Thawing Cell • Cryopreserved target cells was thawed by gentle agitation of the cryovial in a 37 °C water bath; • after thawing, the cryovial was removed from the water bath and decontaminated by spraying or immersing in 70% ethanol; • the cells in the cryovial were transferred into a centrifuge tube containing 9 mL of complete DMEM culture medium, followed by centrifugation at 200 g for 5 min; • the cells were resuspended with culture medium, and precipitated and seeded into a 75 cm^2 culture flask; • the cells were cultured in a Galaxy® CO2 incubator (48R, #CO48312044) under standard culture conditions of 37 °C, 20% oxygen and 5% carbon dioxide. • 2. Spreading Cell • Cells were subcultured three times per week at a ratio of 1:4 in a culture medium supplemented with 10% FBS (heat inactivated) and a 1% Penicillin-Streptomycin solution; • for cell passaging, adherent cells were first rinsed with 3 mL of trypsin/EDTA solution (3 mL). Then, 3 mL of trypsin/EDTA solution was added to the T75 culture flask, and the flask was gently rotated to ensure uniform coverage of the cell. The cells were incubated at 37 °C until complete cell detachment was achieved. Cell detachment was verified under a microscope, then an equal volume of the cell culture medium was added to inactivate the trypsin, and the separated cells were collected, centrifuged at 200 g for 5 minutes, and then re-suspended in a fresh culture medium. • 3. Inoculating cell • The cells were collected and counted; • 100 µ L of a cell suspension with adjusted density were inoculated to a 96-well cell culture plate, and the final cell density was about from 5000 cells/well to 10000 cells/well; • The culture plate was covered and incubated in a 5% CO2 incubator with 20% oxygen at 37 °C for 24 h. • 4. […] Co-incubation of cells with test compounds The culture medium in the 96 wells plate inoculated with cells was discarded, 150 µL of fresh culture medium was added to each well, and then 50 µL of the prepared test compounds were added to the 96-well plate. After the cells were co-incubated with the compounds in an incubator under conditions of 37 °C, 5% CO2, and 0.1% O2 for 24 h. After incubation, the drug-containing medium was removed, and the cells were rinsed with a fresh culture medium. Then the cells were placed in an incubator at 37 °C, 5% CO2, and 20% O2 and continuously cultured for an additional 72 h or 120 h. • 6. Reading plate • The plate was taken out of the incubator and equilibrated for 15 minutes at room temperature; • prior to the experiment, the CellTiter Glo reagent was incubated at 37 °C; • The detection solution was prepared by diluting CellTiter-Glo reagent with PBS at a volume ratio of 3:7, and the diluted solution was added into the wells to be tested; • the plate was then shaken at room temperature for 8 min, and allowed to stand for 2 min, and then signals were detected using an EnSpire reader. • 7.

For a further series, the system named is BT-474. As to the kind of experiment: In vitro cytotoxicity (CellTiter Glo). The class given is cell-based. The following applies: Homo sapiens, BT-474, read-out: EC50 (cell proliferation inhibitory activity). The method, then:
as §1

A further series has as its system MDA-MB-231. As to the kind of experiment: In vitro cytotoxicity (CellTiter Glo). Particulars: Homo sapiens, hypoxic conditions (0.1% O2), HER2-, read-out: EC50 (cell proliferation inhibitory activity). The class given is cell-based. As to the method: as §1
Another series deals with NCI-N87. As to the kind of experiment: In vitro cytotoxicity (CellTiter Glo). The class given is cell-based. Particulars: Homo sapiens, hypoxic conditions (0.1% O2), HER2+, read-out: EC50 (cell proliferation inhibitory activity). The method, then:
as §1

The subject of a further series is SKBR3. Briefly: In vitro cytotoxicity (CellTiter Glo). Particulars: Homo sapiens, SK-BR-3, read-out: EC50 (cell proliferation inhibitory activity). The class given is cell-based. As to the method: as §1
The nature of series [1]: Distribution and metabolism in blood, tissues and tumour. The format is in vivo, mice. Particulars: for area under the drug-time curve as share of that in tumors: after compound III-2 25 mg/kg. The method, then: The present example evaluated distribution and metabolism of compound III-2. SKOV3 ovarian cancer tumor-bearing mice were randomly divided into 6 groups. After tail vein injection with a single dose of compound III-2 (25 mg/kg), the mice were euthanized at the predetermined time points of 6 h, 24h, 72 h, 96 h, 168 h, 192 h in order, and blood, heart, liver, spleen, lung, and tumor samples were collected. The blood and tissue samples were stored at -80 °C for further analysis. […] At 96 h after the administration, Cys-II-2 was hardly detected in heart, liver, spleen, and lung. The peak concentration and area under the curve of the cytotoxin MMAE in the tumor were 293 times and 941 times those in peripheral blood, respectively, further proving that the excellent targeting capability of compound III-2. The area under the drug-time curve of MMAE in heart, liver, spleen and lung were 11%, 47%, 5% and 7% of area under the drug-time curve in tumors, respectively. […] Table 5 Concentration of Cys-II-2 in each group

Series [2] relates to Staphylococcus aureus USA300. As to the kind of experiment: Antibacterial activity against free bacteria (OD600nm). The format is cell-based. The following applies: free USA300, 37 °C, 16 h to 18h. The method, then:
The present example evaluated the antibacterial efficacy of compound III-16 against free Staphylococcus aureus. 5 µL to 10 µL of a Staphylococcus aureus USA300 stock suspension stored at - 80 °C was taken and streaked on Brain Heart Infusion solid culture plates and incubated overnight at 37 °C in a biochemical incubator. A single USA300 colony was picked from the solid culture plates, inoculated into an appropriate volume of Brain Heart Infusion medium, and activated for 16 h to 18 h in a bacteria shaking incubator, then the bacterial suspension was centrifuged for 5 min at a rotating speed of 4000 rpm to collect the bacteria. The bacteria were resuspended in 1×PBS and the bacterial density was diluted to about […]. The diluted bacterial suspension was added to 96-well plates at 100 µL per well. Serially diluted compound III-16 and rifalogue were added to the bacterial suspension in the 96-well plates, and the bacteria was cultured in a biochemical incubator at 37 °C for 16 h to 18h, then the OD600nm was detected using a microplate reader. […] Without being limited by theories, it is speculated that the activity of compound III-16 against free bacteria may be stemed from the cleavage of the linker in compound III-16 by azoreductase extracellularly secreted by the bacteria, which releases rifalogue to exert antibacterial effect.

Setting [3] is: after compound III-2 25 mg/kg single tail vein injection.

Turning to `CC[C@H](C)[C@@H]([C@@H](CC(=O)N1CCC[C@H]1[C@H](OC)[C@@H](C)C(=O)N[C@H](C)[C@@H](O)c1ccccc1)OC)N(C)C(=O)[C@@H](NC(=O)[C@@H](NC)C(C)C)C(C)C` [MMAE] (H-[NMeV]V[Dil][Dolaproine]-X1), the EC50 worked out at 0.015 nM with MCF-7; 0.032 nM in the series on BT-474; 0.57 nM in the series on MDA-MB-231; 0.24 nM in the series on NCI-N87; 0.058 nM in the series with SKBR3. Also, the “Concentration of MMAE” value in series [1] (Blood, 6 h, after compound III-2 25 mg/kg single tail vein injection) is given as 1.54 ng/g or ng/mL; in series [1] (Blood, 24 h, after compound III-2 25 mg/kg single tail vein injection), 0.51 ng/g or ng/mL; in series [1] (Blood, 72 h, after compound III-2 25 mg/kg single tail vein injection), 0.23 ng/g or ng/mL; in series [1] (Blood, 96 h, after compound III-2 25 mg/kg single tail vein injection), 0.12 ng/g or ng/mL; in series [1] (Blood, 168 h, after compound III-2 25 mg/kg single tail vein injection) it was 0.10 ng/g or ng/mL; in series [1] (Blood, 192 h, after compound III-2 25 mg/kg single tail vein injection), “BQL”. Further, the “Concentration of MMAE” value is 112.72 ng/g or ng/mL in series [1] (Heart, 6 h, after compound III-2 25 mg/kg single tail vein injection); 71.97 ng/g or ng/mL in series [1] (Heart, 24 h, after compound III-2 25 mg/kg single tail vein injection); 32.46 ng/g or ng/mL in series [1] (Heart, 72 h, after compound III-2 25 mg/kg single tail vein injection); 17.99 ng/g or ng/mL in series [1] (Heart, 96 h, after compound III-2 25 mg/kg single tail vein injection); 2.70 ng/g or ng/mL in series [1] (Heart, 168 h, after compound III-2 25 mg/kg single tail vein injection); 0.80 ng/g or ng/mL in series [1] (Heart, 192 h, after compound III-2 25 mg/kg single tail vein injection). Besides, the “Concentration of MMAE” value is on record as 348.31 ng/g or ng/mL in series [1] (Liver, 6 h, after compound III-2 25 mg/kg single tail vein injection); 269.21 ng/g or ng/mL in series [1] (Liver, 24 h, after compound III-2 25 mg/kg single tail vein injection); 115.44 ng/g or ng/mL in series [1] (Liver, 72 h, after compound III-2 25 mg/kg single tail vein injection); 101.72 ng/g or ng/mL in series [1] (Liver, 96 h, after compound III-2 25 mg/kg single tail vein injection); 26.86 ng/g or ng/mL in series [1] (Liver, 168 h, after compound III-2 25 mg/kg single tail vein injection); 10.07 ng/g or ng/mL in series [1] (Liver, 192 h, after compound III-2 25 mg/kg single tail vein injection). For the same compound, the “Concentration of MMAE” value was 22.96 ng/g or ng/mL in series [1] (Lung, 6 h, after compound III-2 25 mg/kg single tail vein injection); 12.85 ng/g or ng/mL in series [1] (Lung, 24 h, after compound III-2 25 mg/kg single tail vein injection); 19.79 ng/g or ng/mL in series [1] (Lung, 72 h, after compound III-2 25 mg/kg single tail vein injection); 43.95 ng/g or ng/mL in series [1] (Lung, 96 h, after compound III-2 25 mg/kg single tail vein injection); 1.93 ng/g or ng/mL in series [1] (Lung, 168 h, after compound III-2 25 mg/kg single tail vein injection); 1.04 ng/g or ng/mL in series [1] (Lung, 192 h, after compound III-2 25 mg/kg single tail vein injection). Further, the “Concentration of MMAE” value is reported as 21.29 ng/g or ng/mL in series [1] (Spleen, 6 h, after compound III-2 25 mg/kg single tail vein injection); 19.80 ng/g or ng/mL in series [1] (Spleen, 24 h, after compound III-2 25 mg/kg single tail vein injection); 20.24 ng/g or ng/mL in series [1] (Spleen, 72 h, after compound III-2 25 mg/kg single tail vein injection); 13.60 ng/g or ng/mL in series [1] (Spleen, 96 h, after compound III-2 25 mg/kg single tail vein injection); 3.82 ng/g or ng/mL in series [1] (Spleen, 168 h, after compound III-2 25 mg/kg single tail vein injection); 1.40 ng/g or ng/mL in series [1] (Spleen, 192 h, after compound III-2 25 mg/kg single tail vein injection). For the same compound, the “Concentration of MMAE” value is given as 54.24 ng/g or ng/mL in series [1] (Tumour, 6 h, after compound III-2 25 mg/kg single tail vein injection); 179.62 ng/g or ng/mL in series [1] (Tumour, 24 h, after compound III-2 25 mg/kg single tail vein injection); 292.45 ng/g or ng/mL in series [1] (Tumour, 72 h, after compound III-2 25 mg/kg single tail vein injection); 451.68 ng/g or ng/mL in series [1] (Tumour, 96 h, after compound III-2 25 mg/kg single tail vein injection); 198.90 ng/g or ng/mL in series [1] (Tumour, 168 h, after compound III-2 25 mg/kg single tail vein injection); 125.44 ng/g or ng/mL in series [1] (Tumour, 192 h, after compound III-2 25 mg/kg single tail vein injection). For the same compound, the “area under the curve in the tumor relative to peripheral blood” value in series [1] (setting [3]) is on record as 941 times. The “peak concentration in the tumor relative to peripheral blood” value in series [1] (setting [3]) is 293 times. In addition, the “area under the drug-time curve as share of that in tumors” value in series [1] (heart) came out at 11%; in series [1] (liver) it was 47%; in series [1] (lung), 7%; in series [1] (spleen), 5%.
Consider `CO[C@H]1C=CO[C@@]2(C)Oc3c(C)c(O)c4c(=O)c(c5oc6cc(N7CCC(N(C)C)CC7)cc(=O)c6nc5c4c3=C2O)NC(=O)/C(C)=C\C=C/[C@H](C)[C@H](O)[C@@H](C)[C@@H](O)[C@@H](C)[C@H](OC(C)=O)[C@@H]1C` [rifalogue], for which the MIC90 entry in series [2] is recorded as “about 1.4 nM”.
